In ChEMBL document CHEMBL6109077, “Design, synthesis and in vitro validation of bivalent binders of SARS-CoV-2 spike protein: Obeticholic, betulinic and glycyrrhetinic acids as building blocks” (Bioorg Med Chem, 2025):
Calls of active or inactive are those of the source. The rule behind the calls is not given here.

Molecular target: Glycoprotein (Vesicular stomatitis Indiana virus (strain San Juan) (VSIV)) (UniProt P03522)
Test: Inhibition of glycoprotein in pseudotyped Vesicular stomatitis virus infected in 293T/ACE2 cells assessed as reduction in viral entry at 10 uM preincubated with virus for 1 hr followed by cell infection and measured after 48 hrs by bright-glo luciferase reporter gene assay
Type: cell-based
Conditions: time 49.0 hrs

Sequence of Glycoprotein (Vesicular stomatitis Indiana virus (strain San Juan) (VSIV)) (P03522 whole entry): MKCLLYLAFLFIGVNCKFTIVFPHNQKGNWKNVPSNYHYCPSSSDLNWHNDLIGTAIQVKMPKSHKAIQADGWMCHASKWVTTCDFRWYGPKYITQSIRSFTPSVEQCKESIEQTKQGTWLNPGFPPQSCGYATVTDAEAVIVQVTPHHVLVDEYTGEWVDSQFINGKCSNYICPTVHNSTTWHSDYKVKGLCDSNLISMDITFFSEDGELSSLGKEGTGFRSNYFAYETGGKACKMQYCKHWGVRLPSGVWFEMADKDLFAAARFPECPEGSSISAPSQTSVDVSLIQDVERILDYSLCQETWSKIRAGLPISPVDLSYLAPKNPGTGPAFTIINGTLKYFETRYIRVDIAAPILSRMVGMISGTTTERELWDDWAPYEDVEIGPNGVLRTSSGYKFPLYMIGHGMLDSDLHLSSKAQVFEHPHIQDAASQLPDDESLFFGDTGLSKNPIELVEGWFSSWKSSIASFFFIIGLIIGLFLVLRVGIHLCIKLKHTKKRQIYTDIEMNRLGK

SMILES: C=C(C)[C@@H]1CC[C@]2(C(=O)OC)CC[C@@]3(C)[C@@H]4CC[C@@H]5[C@H](CC[C@H](OC(=O)CCCCc6cn(CCCCCCNC(=O)CC[C@@H](C)[C@H]7CC[C@H]8[C@@H]9[C@H](O)[C@H](CC)[C@@H]%10C[C@H](O)CC[C@]%10(C)[C@H]9CC[C@]78C)nn6)C5(C)C)[C@H]4CC[C@@H]3[C@@H]12
- inhibition: inactive

SMILES: C=C(C)[C@@H]1CC[C@]2(C(=O)OC)CC[C@]3(C)[C@H](CC[C@@H]4[C@@]5(C)CC[C@H](OC(=O)CCCCCCCCNC(=O)CC[C@@H](C)[C@H]6CC[C@H]7[C@@H]8[C@H](O)[C@H](CC)[C@@H]9C[C@H](O)CC[C@]9(C)[C@H]8CC[C@]67C)C(C)(C)[C@@H]5CC[C@]43C)[C@@H]12
- inhibition: inactive

SMILES: CC[C@H]1[C@@H](O)[C@@H]2[C@H](CC[C@]3(C)[C@@H]([C@H](C)CCC(=O)NCCCCCCn4cc(CCCCC(=O)O[C@H]5CC[C@H]6[C@@H](CC[C@]7(C)[C@@H]6C(=O)C=C6[C@@H]8C[C@@](C)(C(=O)OC)CC[C@]8(C)CC[C@]67C)C5(C)C)nn4)CC[C@@H]23)[C@@]2(C)CC[C@@H](O)C[C@@H]12
- inhibition: inactive

SMILES: C=C(C)[C@@H]1CC[C@]2(C(=O)OC)CC[C@]3(C)[C@H](CC[C@@H]4[C@@]5(C)CC[C@H](OC(=O)CCCNC(=O)CC[C@@H](C)[C@H]6CC[C@H]7[C@@H]8[C@H](O)[C@H](CC)[C@@H]9C[C@H](O)CC[C@]9(C)[C@H]8CC[C@]67C)C(C)(C)[C@@H]5CC[C@]43C)[C@@H]12
- inhibition: inactive
